Source: PubChem BioAssay AID248 (DTP/NCI, 2004)
Several values for one entry are separate records, joined by “and”; a condition that tells them apart may be missing. Equal values may be shown once. Toxic doses and inconclusive results are not listed. Cut-off read from the data, not from the text of the source: active = T/C of 150% or more; inactive = T/C below 125%.

Tested on: L1210 leukemia ip in BDF1 mice, survival T/C
Experiment: NCI In Vivo Anticancer Drug Screen. Data for tumor model L1210 Leukemia (intraperitoneal) in B6D2F1 (BDF1) mice
Settings: endpoint: mean survival time, higher = longer survival
In short: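 Transplantable tumor model; survival measured in treated vs vehicle control mice. Value = treated/control.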

[1] = dose: 100.0 mg/kg/injection, schedule: Q01DX009 (ip), vehicle: Klucel (hydroxypropylcellulose) (HPC)
[2] = dose: 100.0 mg/kg/injection, schedule: Q04DX003 (ip), vehicle: Klucel (hydroxypropylcellulose) (HPC)
[3] = dose: 200.0 mg/kg/injection, schedule: Q01DX009 (ip), vehicle: Klucel (hydroxypropylcellulose) (HPC)
[4] = dose: 400.0 mg/kg/injection, schedule: Q01DX009 (ip), vehicle: Klucel (hydroxypropylcellulose) (HPC)
[5] = dose: 400.0 mg/kg/injection, schedule: Q04DX003 (ip), vehicle: Klucel (hydroxypropylcellulose) (HPC)
[6] = dose: 100.0 mg/kg/injection, schedule: Q01DX001 (ip), vehicle: saline
[7] = dose: 200.0 mg/kg/injection, schedule: Q01DX001 (ip), vehicle: saline
[8] = dose: 400.0 mg/kg/injection, schedule: Q01DX001 (ip), vehicle: saline
[9] = dose: 100.0 mg/kg/injection, schedule: Q04DX002 (ip), vehicle: saline with Tween-80
[10] = dose: 200.0 mg/kg/injection, schedule: Q04DX002 (ip), vehicle: saline with Tween-80
[11] = dose: 400.0 mg/kg/injection, schedule: Q04DX002 (ip), vehicle: saline with Tween-80
[12] = dose: 100.0 mg/kg/injection, schedule: Q04DX002 (ip), vehicle: Klucel (hydroxypropylcellulose) (HPC)
[13] = dose: 200.0 mg/kg/injection, schedule: Q04DX002 (ip), vehicle: Klucel (hydroxypropylcellulose) (HPC)
[14] = dose: 400.0 mg/kg/injection, schedule: Q04DX002 (ip), vehicle: Klucel (hydroxypropylcellulose) (HPC)
[15] = dose: 100.0 mg/kg/injection, schedule: Q01DX009 (ip), vehicle: saline with Tween-80
[16] = dose: 100.0 mg/kg/injection, schedule: Q04DX003 (ip), vehicle: saline with Tween-80
[17] = dose: 200.0 mg/kg/injection, schedule: Q04DX003 (ip), vehicle: saline with Tween-80
[18] = dose: 50.0 mg/kg/injection, schedule: Q01DX001 (ip), vehicle: carboxymethylcellulose (CMC)
[19] = dose: 100.0 mg/kg/injection, schedule: Q01DX001 (ip), vehicle: carboxymethylcellulose (CMC)
[20] = dose: 200.0 mg/kg/injection, schedule: Q01DX001 (ip), vehicle: carboxymethylcellulose (CMC)
[21] = dose: 400.0 mg/kg/injection, schedule: Q01DX001 (ip), vehicle: carboxymethylcellulose (CMC)
[22] = dose: 50.0 mg/kg/injection, schedule: Q01DX001 (ip), vehicle: saline
[23] = dose: 200.0 mg/kg/injection, schedule: Q04DX003 (ip), vehicle: Klucel (hydroxypropylcellulose) (HPC)
[24] = dose: 200.0 mg/kg/injection, schedule: Q01DX009 (ip), vehicle: saline with Tween-80

Measured: T/C

COc1ccc2c(c1)CCC1=C2CCC(C)(C(C)=O)C1C(=O)O (stereo unspecified)
inactive: dose: 25.0 mg/kg/injection, schedule: Q01DX009 (ip), vehicle: Klucel (hydroxypropylcellulose) (HPC) 101 % of control | dose: 25.0 mg/kg/injection, schedule: Q04DX003 (ip), vehicle: Klucel (hydroxypropylcellulose) (HPC) 97 % of control | dose: 50.0 mg/kg/injection, schedule: Q01DX009 (ip), vehicle: Klucel (hydroxypropylcellulose) (HPC) 98 % of control | dose: 50.0 mg/kg/injection, schedule: Q04DX003 (ip), vehicle: Klucel (hydroxypropylcellulose) (HPC) 100 % of control | [1] 95 % of control | [2] 102 % of control and 87 % of control

O=[N+]([O-])c1ccccc1SNc1ccccc1
inactive: [1] 102 % of control | [2] 96 % of control | [3] 105 % of control | [4] 107 % of control | [5] 103 % of control

CC(COc1cc(Cl)c(Cl)cc1Cl)OC(=O)COc1ccc(Cl)cc1Cl (stereo unspecified)
inactive: [6] 88 % of control | [7] 95 % of control | [8] 95 % of control

CCCCCCCCCCCC(C)NCc1ccccc1 (stereo unspecified)
inactive: dose: 6.25 mg/kg/injection, schedule: Q01DX009 (ip), vehicle: saline with Tween-80 89 % of control | dose: 12.5 mg/kg/injection, schedule: Q01DX009 (ip), vehicle: saline with Tween-80 89 % of control | dose: 25.0 mg/kg/injection, schedule: Q01DX009 (ip), vehicle: saline with Tween-80 97 % of control | dose: 25.0 mg/kg/injection, schedule: Q04DX003 (ip), vehicle: saline 94 % of control | dose: 35.0 mg/kg/injection, schedule: Q01DX009 (ip), vehicle: acetone 92 % of control

Cc1ccccc1N=Nc1c(O)n(-c2ccccc2C)c(=S)n(-c2ccccc2)c1=O
inactive: dose: 75.0 mg/kg/injection, schedule: Q01DX003 (ip), vehicle: Klucel (hydroxypropylcellulose) (HPC) 88 % of control | dose: 150.0 mg/kg/injection, schedule: Q01DX003 (ip), vehicle: Klucel (hydroxypropylcellulose) (HPC) 104 % of control | dose: 300.0 mg/kg/injection, schedule: Q01DX003 (ip), vehicle: Klucel (hydroxypropylcellulose) (HPC) 86 % of control

O=C1c2cccc(Cl)c2C(=O)c2c(O)ccc(O)c21
inactive: [9] 87 % of control | [10] 97 % of control | [11] 97 % of control

Nc1ccc(S(=O)(=O)CCCl)cc1
inactive: [12] 89 % of control | [13] 100 % of control | [14] 100 % of control

Cc1ccc(S(=O)(=O)Oc2ccc3ccccc3c2)cc1
inactive: [15] 88 % of control | [16] 98 % of control | [17] 86 % of control | dose: 400.0 mg/kg/injection, schedule: Q04DX003 (ip), vehicle: saline with Tween-80 86 % of control

C1CCC(CC2CCNCC2)CC1
inactive: dose: 12.5 mg/kg/injection, schedule: Q04DX003 (ip), vehicle: saline with Tween-80 105 % of control | dose: 25.0 mg/kg/injection, schedule: Q04DX003 (ip), vehicle: saline with Tween-80 96 % of control | dose: 50.0 mg/kg/injection, schedule: Q04DX003 (ip), vehicle: saline with Tween-80 102 % of control

O=C(NC(=S)Nc1ccc(F)cc1)c1ccccc1F
inactive: dose: 25.0 mg/kg/injection, schedule: Q01DX009 (ip), vehicle: gum acacia 104 % of control | dose: 50.0 mg/kg/injection, schedule: Q01DX009 (ip), vehicle: gum acacia 107 % of control | dose: 100.0 mg/kg/injection, schedule: Q01DX009 (ip), vehicle: gum acacia 96 % of control and 105 % of control

Cc1ccc2c(c1)C(=O)c1ccccc1C2=O
inactive: [18] 95 % of control | [19] 101 % of control | [12] 100 % of control | [20] 91 % of control | [13] 107 % of control | [21] 95 % of control | [14] 96 % of control

CCN(CC)c1ccc(/C=N\NC(=O)CCCC(=O)N/N=C/c2ccc(N(CC)CC)cc2)cc1
inactive: [22] 102 % of control | [6] 100 % of control | [7] 96 % of control | [8] 100 % of control

Cc1cc(Oc2ccc(Cl)cc2NC(=O)Nc2cccc(C(F)(F)F)c2)cc(S(=O)(=O)O)c1Cl
inactive: dose: 25.0 mg/kg/injection, schedule: Q01DX009 (ip), vehicle: saline sonified 101 % of control | dose: 50.0 mg/kg/injection, schedule: Q01DX009 (ip), vehicle: saline sonified 98 % of control | dose: 100.0 mg/kg/injection, schedule: Q01DX009 (ip), vehicle: saline sonified 90 % of control

Brc1ccc(N=N/C(=N/Nc2ccccc2)c2ccc(/C=N/Nc3ccccc3)cc2)cc1
inactive: [22] 95 % of control | [6] 101 % of control | [7] 95 % of control | [8] 91 % of control

COc1ccc(-c2cc(-c3ccc(Cl)cc3)no2)cc1
inactive: [2] 106 % of control | [23] 92 % of control | [5] 95 % of control

OC1CCNc2ccccc21 (stereo unspecified)
inactive: dose: 100.0 mg/kg/injection, schedule: Q01DX009 (ip), vehicle: saline 104 % of control | dose: 200.0 mg/kg/injection, schedule: Q01DX009 (ip), vehicle: saline 105 % of control | dose: 400.0 mg/kg/injection, schedule: Q01DX009 (ip), vehicle: saline 112 % of control

Cc1ccc(N=Cc2ccc([N+](=O)[O-])s2)cc1Cl
inactive: [2] 91 % of control | [23] 89 % of control

C1CCC2OCOCC2C1 (stereo unspecified)
inactive: [9] 93 % of control | [10] 90 % of control | [11] 93 % of control

COc1ccc(S(=O)(=O)F)cc1NC(=O)NCc1ccc([N+](=O)[O-])cc1
inactive: [1] 103 % of control | [3] 110 % of control | [4] 108 % of control

COc1ccccc1OCC(=O)N1CCCC1
inactive: [12] 98 % of control | [13] 98 % of control | [14] 117 % of control

CCCCCCCCOB(OCCCCCCCC)OCCCCCCCC
inactive: [18] 96 % of control | [19] 100 % of control | [15] 96 % of control | [16] 98 % of control | [20] 96 % of control | [24] 95 % of control | [17] 94 % of control | [21] 100 % of control

CNC(=O)C1NCCc2cc(OC)c(OC)cc21 (stereo unspecified)
inactive: [6] 97 % of control | [7] 95 % of control | [8] 91 % of control

Nc1ncc(C=Nc2ccc(C(=O)O)cc2)c(N)n1
inactive: [20] 94 % of control | [21] 102 % of control

CSC(=S)NCC(=O)O
inactive: dose: 50.0 mg/kg/injection, schedule: Q01DX009 (ip), vehicle: saline with Tween-80 89 % of control | [15] 89 % of control | [24] 101 % of control

c1cc[c]([Sb]([c]2ccccc2)[n]2ccnc2)cc1
inactive: dose: 5.0 mg/kg/injection, schedule: Q04DX002 (ip), vehicle: saline with Tween-80 97 % of control | dose: 10.0 mg/kg/injection, schedule: Q04DX002 (ip), vehicle: saline with Tween-80 97 % of control
